Test results reported in PubChem BioAssay AID330 (DTP/NCI, 2004).
“And” between values parts separate entries of the source, which are not always exact repeats. Identical values can stand only once. Inconclusive results and toxic doses are left out. How the source made its calls: active means survival T/C of 150% or more; inactive means T/C below 125% in these data.

Test system: P388 leukemia ip, CD2F1 mice, survival T/C
Test: NCI In Vivo Anticancer Drug Screen. Data for tumor model P388 Leukemia (intraperitoneal) in CD2F1 (CDF1) mice
Settings: endpoint: median survival time, higher = longer survival
Outline: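 Mice carrying the transplanted tumor received test compound or vehicle. Survival was recorded in each group, and the value is the treated-group measurement divided by that of the vehicle-treated control group.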

[1] = dose: 100.0 mg/kg/injection, schedule: Q01DX009 (ip), vehicle: water
[2] = dose: 50.0 mg/kg/injection, schedule: Q01DX005 (ip), vehicle: Klucel (hydroxypropylcellulose) (HPC)
[3] = dose: 100.0 mg/kg/injection, schedule: Q01DX005 (ip), vehicle: Klucel (hydroxypropylcellulose) (HPC)
[4] = dose: 200.0 mg/kg/injection, schedule: Q01DX005 (ip), vehicle: Klucel (hydroxypropylcellulose) (HPC)
[5] = dose: 25.0 mg/kg/injection, schedule: Q01DX005 (ip), vehicle: saline with Tween-80
[6] = dose: 50.0 mg/kg/injection, schedule: Q01DX005 (ip), vehicle: saline with Tween-80
[7] = dose: 100.0 mg/kg/injection, schedule: Q01DX005 (ip), vehicle: saline with Tween-80

Measured: T/C

COc1cccc2c1C(=O)c1c(OC)c(C=O)cc(OC)c1C2=O
inactive: dose: 50.0 mg/kg/injection, schedule: Q01DX009 (ip), vehicle: water 99 % of control | [1] 100 % of control | dose: 200.0 mg/kg/injection, schedule: Q01DX009 (ip), vehicle: water 98 % of control

[O-][n+]1c2ccccc2nc2ccccc21
inactive: [2] 115 % of control | [3] 110 % of control | [4] 100 % of control

Cc1cc(C(O)(C(F)(F)F)C(F)(F)F)c2c(c1)C(C(F)(F)F)(C(F)(F)F)OC(C)(C)N2
inactive: [2] 100 % of control | [3] 100 % of control | [4] 101 % of control

CC(C)C(C/C(=N\Nc1ccc([N+](=O)[O-])cc1[N+](=O)[O-])C1CC1)C(=O)O (configuration not stated)
inactive: [5] 105 % of control | [6] 96 % of control | [7] 89 % of control

O=C1C(=O)c2cccc([N+](=O)[O-])c2-c2ccccc21
inactive: dose: 12.5 mg/kg/injection, schedule: Q01DX005 (ip), vehicle: saline with Tween-80 104 % of control and 106 % of control | [5] 101 % of control and 115 % of control | [6] 107 % of control and 118 % of control | [7] 104 % of control (2×) and 95 % of control

COc1cc2c[n+](C)c3ccccc3c2cc1OC
inactive: dose: 12.5 mg/kg/injection, schedule: Q01DX009 (ip), vehicle: water 112 % of control and 115 % of control | dose: 25.0 mg/kg/injection, schedule: Q01DX009 (ip), vehicle: water 124 % of control | [1] 105 % of control

COc1ccc(Br)cc1C(Nc1nncs1)Nc1nncs1
inactive: dose: 30.0 mg/kg/injection, schedule: Q01DX005 (ip), vehicle: saline with Tween-80 93 % of control | dose: 60.0 mg/kg/injection, schedule: Q01DX005 (ip), vehicle: saline with Tween-80 87 % of control and 89 % of control | dose: 120.0 mg/kg/injection, schedule: Q01DX005 (ip), vehicle: saline with Tween-80 92 % of control | dose: 240.0 mg/kg/injection, schedule: Q01DX005 (ip), vehicle: saline with Tween-80 90 % of control

O=C(O)/C=C\C(=O)Nc1ccccc1NC(=O)/C=C/C(=O)O
inactive: dose: 100.0 mg/kg/injection, schedule: Q04DX003 (ip), vehicle: saline 91 % of control | dose: 200.0 mg/kg/injection, schedule: Q04DX003 (ip), vehicle: saline 100 % of control | dose: 400.0 mg/kg/injection, schedule: Q04DX003 (ip), vehicle: saline 87 % of control

CCN(Cc1cccc(S(=O)(=O)[O-])c1)c1ccc(C(=C2C=CC(=[N+](CC)Cc3cccc(S(=O)(=O)O)c3)C=C2)c2ccccc2S(=O)(=O)O)cc1
inactive: dose: 50.0 mg/kg/injection, schedule: Q01DX005 (ip), vehicle: saline 104 % of control | dose: 100.0 mg/kg/injection, schedule: Q01DX005 (ip), vehicle: saline 96 % of control | dose: 200.0 mg/kg/injection, schedule: Q01DX005 (ip), vehicle: saline 96 % of control

C=C1C(=O)O[C@H]2[C@H]1[C@@H](OC(=O)C=C(C)C)CC1=C[C@@H](C[C@@]3(C)O[C@@H]23)OC1=O
inactive: dose: 12.5 mg/kg/injection, schedule: Q01DX009 (ip), vehicle: saline 92 % of control | dose: 25.0 mg/kg/injection, schedule: Q01DX009 (ip), vehicle: saline 100 % of control | dose: 50.0 mg/kg/injection, schedule: Q01DX009 (ip), vehicle: saline 99 % of control | dose: 100.0 mg/kg/injection, schedule: Q01DX009 (ip), vehicle: saline 101 % of control

Cc1ccc(S(=O)(=O)N/N=C/c2cc(I)cc(I)c2O)cc1
inactive: [6] 98 % of control | [7] 100 % of control | dose: 200.0 mg/kg/injection, schedule: Q01DX005 (ip), vehicle: saline with Tween-80 100 % of control

CCc1c(C(=O)OC)c(C(=O)OC)c(-c2ccc(C)cc2)n1CCn1c(CC)c(C(=O)OC)c(C(=O)OC)c1-c1ccc(C)cc1
inactive: dose: 60.0 mg/kg/injection, schedule: Q01DX005 (ip), vehicle: Klucel (hydroxypropylcellulose) (HPC) 96 % of control | dose: 120.0 mg/kg/injection, schedule: Q01DX005 (ip), vehicle: Klucel (hydroxypropylcellulose) (HPC) 101 % of control | dose: 240.0 mg/kg/injection, schedule: Q01DX005 (ip), vehicle: Klucel (hydroxypropylcellulose) (HPC) 92 % of control

CN(CCO)c1cnn(CCO)c(=O)c1Cl
inactive: dose: 60.0 mg/kg/injection, schedule: Q01DX005 (ip), vehicle: saline 102 % of control | dose: 120.0 mg/kg/injection, schedule: Q01DX005 (ip), vehicle: saline 105 % of control | dose: 240.0 mg/kg/injection, schedule: Q01DX005 (ip), vehicle: saline 102 % of control
